Assay results published in patent US6914045B2, “Glycopeptide antibiotics” (Wyeth Holdings Corporation, priority 2001, dated 2005).

How the values were obtained:
Enterococcus sp. = assay: in vitro antibacterial evaluation, MIC by broth dilution; assay type: cell-based; settings: broth dilution, 18 hours at 35° C.
Outline: (§1)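 Broth dilution per NCCLS standard M7-A2 in Muller-Hinton II […], with an inoculum of 5×10^5 CFU/mL and antibiotic spanning 64-0.06 μg/mL. The MIC is the lowest concentration that inhibits growth of the organism.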

Staphylococcus sp. = assay: as above; assay type: cell-based; settings: broth dilution, 18 hours at 35° C.
Outline: as §1

Streptococcus sp. = assay: as above; assay type: cell-based; settings: broth dilution, 18 hours at 35° C.
Outline: as §1

[1] = clinical pathology (serum clinical chemistry) in mice; assay type: in vivo; settings: CD-1 mice, 20 mg/kg intravenously daily for 9 days, sera day 10
Protocol: 20-day-old CD-1 mice were divided into a vehicle control group (5 mice) and a treatment group (5 mice). Samples of glycopeptide antibiotics were administered at 20 mg/kg intravenously daily for 9 days.

[2] = anatomic pathology (histopathology of heart and kidney) in mice; assay type: in vivo; settings: CD-1 mice, 20 mg/kg intravenously daily for 9 days, necropsy day 10, microscopic histopathology
Protocol: Samples of tissues from necropsied mice were formalin-fixed, paraffin-embedded, sectioned, stained with hematoxylin and eosin, and examined microscopically. Histopathologic findings were recorded. These findings were subjectively graded on a scale corresponding to slight, mild, moderate, marked and severe as compared to untreated controls.

Escherichia coli = assay: in vitro antibacterial evaluation, MIC by broth dilution; assay type: cell-based; settings: 18 hours at 35° C.
Outline: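 Broth dilution in Muller-Hinton II medium per NCCLS standard M7-A2, with an inoculum of 5×10^5 CFU/mL and antibiotic tested over 64-0.06 μg/mL. MIC was taken as the lowest concentration inhibiting visible growth.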

CC(c1ccccc1)C1NC(=O)CNC(=O)C(CO)NC(=O)C(C(O)C2CN(Cc3ccccc3-c3ccccc3)C(=N)N2C2OC(CO)C(O)C(O)C2O)NC(=O)C(C(O)C2CNC(=N)N2)NC(=O)C(Cc2ccc(OC3OC(CO)C(OC4OC(CO)C(O)C(O)C4O)C(O)C3O)cc2)NC1=O (centres unmarked) [Example 65]
>128 µg/mL: MIC Enterococcus faecalis (ATCC 29212) (Enterococcus sp.; Enterococcus faecalis (ATCC 29212)) | MIC Enterococcus faecalis (GC 4552) (Enterococcus sp.; Enterococcus faecalis (GC 4552)) | MIC Enterococcus faecalis (GC 4554) (Enterococcus sp.; Enterococcus faecalis (GC 4554)) | MIC Enterococcus faecalis (GC 6189) (Enterococcus sp.; Enterococcus faecalis (GC 6189)) | MIC Enterococcus faecium (GC 4556) (Enterococcus sp.; Enterococcus faecium (GC 4556)) | MIC Enterococcus faecalis (ATCC 29212) (Enterococcus sp.) | MIC Enterococcus faecalis (GC 2242) (Enterococcus sp.) | MIC Enterococcus faecalis (GC 2691) (Enterococcus sp.) | MIC Enterococcus faecalis (GC 3059) (Enterococcus sp.) | MIC Enterococcus faecalis (GC 4552) (Enterococcus sp.) | MIC Enterococcus faecalis (GC 4554) (Enterococcus sp.) | MIC Enterococcus faecalis (GC 6189) (Enterococcus sp.) | MIC Enterococcus faecium (GC 4556) (Enterococcus sp.) | MIC Enterococcus faecalis (GC 2242) (Enterococcus sp.; strain GC 2242) | MIC Enterococcus faecalis (GC 2691) (Enterococcus sp.; strain GC 2691) | MIC Enterococcus faecalis (GC 3059) (Enterococcus sp.; strain GC 3059) | MIC Staphylococcus aureus (ATCC 29213) (Staphylococcus sp.; strain ATCC 29213) | MIC Staphylococcus aureus (GC 1131) (Staphylococcus sp.; strain GC 1131) | MIC Staphylococcus aureus (GC 3051) (Staphylococcus sp.; strain GC 3051) | MIC Staphylococcus aureus (GC 3053) (Staphylococcus sp.; strain GC 3053) | MIC Staphylococcus aureus (GC 4541) (Staphylococcus sp.; strain GC 4541) | MIC Staphylococcus aureus (GC 4542) (Staphylococcus sp.; strain GC 4542) | MIC Staphylococcus aureus-SMITH (GC 4543) (Staphylococcus sp.; strain GC 4543) | MIC Staphylococcus aureus (GC 4544) (Staphylococcus sp.; strain GC 4544) | MIC Staphylococcus aureus (GC 4545) (Staphylococcus sp.; strain GC 4545) | MIC Staphylococcus haemolyticus (GC 4546) (Staphylococcus sp.; strain GC 4546) | MIC Coagulase Negative Staphylococcus (GC 4547) (Staphylococcus sp.; strain GC 4547) | MIC Coagulase Negative Staphylococcus (GC 4548) (Staphylococcus sp.; strain GC 4548) | MIC Coagulase Negative Staphylococcus (GC 4549) (Staphylococcus sp.; strain GC 4549) | MIC Coagulase Negative Staphylococcus (GC 4551) (Staphylococcus sp.; strain GC 4551) | MIC Streptococcus agalactiae (GC 4564) (Streptococcus sp.) | MIC Streptococcus agalactiae (GC 4564) (Streptococcus sp.; strain GC 4564) | MIC Escherichia coli (ATCC 25922) (Escherichia coli) | MIC Escherichia coli (GC 4559) (Escherichia coli)
+++: Anatomical Pathology (Day 10), Kidney [2]
128 µg/mL: MIC Enterococcus avium (GC 4558) (Enterococcus sp.; Enterococcus avium (GC 4558)) | MIC Enterococcus faecalis (GC 4553) (Enterococcus sp.; Enterococcus faecalis (GC 4553)) | MIC Enterococcus faecium (GC 2243) (Enterococcus sp.; Enterococcus faecium (GC 2243)) | MIC Enterococcus faecium (GC 4557) (Enterococcus sp.; Enterococcus faecium (GC 4557)) | MIC Enterococcus avium (GC 4558) (Enterococcus sp.) | MIC Enterococcus faecalis (GC 4553) (Enterococcus sp.) | MIC Enterococcus faecium (GC 2243) (Enterococcus sp.) | MIC Enterococcus faecium (GC 4557) (Enterococcus sp.) | MIC Streptococcus pneumoniae (ATCC 6301) (Streptococcus sp.) | MIC Streptococcus pneumoniae (GC 1894) (Streptococcus sp.) | MIC Streptococcus pneumoniae (GC 4565) (Streptococcus sp.) | MIC Streptococcus pyogenes (GC 4563) (Streptococcus sp.) | MIC Streptococcus pneumoniae (ATCC 6301) (Streptococcus sp.; strain ATCC 6301) | MIC Streptococcus pneumoniae (GC 1894) (Streptococcus sp.; strain GC 1894) | MIC Streptococcus pyogenes (GC 4563) (Streptococcus sp.; strain GC 4563) | MIC Streptococcus pneumoniae (GC 4565) (Streptococcus sp.; strain GC 4565)
+182%: Clinical Chemistry (Day 10) % of Control, AST [1]
32 µg/mL: MIC Escherichia coli (GC 4560) (Escherichia coli)
0: Anatomical Pathology (Day 10), Heart [2]
+196%: Clinical Chemistry (Day 10) % of Control, ALT [1]
+161%: Clinical Chemistry (Day 10) % of Control, BUN [1]
